Earlier results, collected in US11596597B2, “Depot formulation” (Cipla Limited, priority 2018, dated 2023).

Settings: stated in words, no test described

Q: Which solubility in water does the source give for “7,8,9,10-tetrahydro-6,10-methano-6H-pyrazino [2,3-h] [3]-benzazepine, (2R, 3R)-2,3-dihydroxybutanedioate [Varenicline salt]” here?
A: Its solubility in water is “freely soluble”.

Q: Which solubility in water does the source give for `c1cnc2cc3c(cc2n1)[C@@H]1CNC[C@H]3C1` [varenicline base] here?
A: The solubility in water was “practically insoluble”.
